Data on five molecules can be found in US20200297820A1, “STIMULATION OF HUMAN MEIBOMIAN GLAND FUNCTION” (The Schepens Eye Research Institute, Inc., priority 2013, published 2020).

Data set [1] relates to immortalized human meibomian gland cells. Nature of the data set: 13-cis RA-induced late apoptosis/necrosis. It is filed as cell-based.
Data set [2] relates to human meibomian gland epithelial cells. Nature of the data set: Immunoblot of signaling pathways (Akt, FoxO1, ERK, JAK2/STAT5). It counts as cell-based. Here is the method:
The disclosure turns now to sodium dodecyl sulfate-polyacrylamide gel, electrophoresis, and immunoblots. Cells were directly lysed in Laemmli buffer supplemented with 1% protease inhibitor cocktail (Sigma-Aldrich) and 5% β-mercaptoethanol (Sigma-Aldrich). Lysates were heated at 95° C. for 10 minutes, separated by sodium dodecyl sulfate-polyacrylamide gel electrophoresis on 10% Tris-glycine precast gels, and transferred to polyvinylidene difluoride membranes. Rabbit or mouse antibodies used were specific for phosphorylated Akt (p-Akt), pan-Akt, p-FoxO1, FoxO1, p-JAK2, JAK2, and β-actin; for p-ERK, ERK-2, STAT5, and the precursor form of SREBP-1; and for p-STAT5. Membranes were blocked with 5% bovine serum albumin in Tris-buffered saline containing 0.01% polysorbate 20. All primary antibodies were diluted to 1:1000 in blocking buffer except for p-Akt (1:4000), p-ERK (1:2000), ERK-2 (1:4000), SREBP-1 (1:200), and β-actin (1:10 000). Horseradish peroxidase-conjugated secondary antibodies were goat anti-rabbit IgG and Fc-specific goat anti-mouse IgG diluted to 1:5000. Proteins were visualized with enhanced chemiluminescent substrate or with ultrasensitive chemiluminescent substrate. Densitometry was performed with image-processing software.
To determine whether IGF-1 promotes the phosphorylation of Akt in human meibomian gland epithelial cells, cells were cultured under proliferating or differentiating conditions and then exposed to IGF-1 for 15 minutes.
FIGS. 9a, 9b, and 9c illustrate the effects of insulin-like growth factor 1 (IGF-1) and growth hormone (GH) on signaling pathways in human meibomian gland epithelial cells. Cells were cultured in keratinocyte serum-free medium containing epidermal growth factor (EGF) and bovine pituitary extract (BPE) for 2 days and then keratinocyte serum-free medium alone overnight or were cultured in 10% fetal bovine serum (FBS) medium for 5 to 7 days and in 1% FBS medium overnight. Cells were then incubated with vehicle or a 10 μM concentration of LY294002 for 2 hours, followed by IGF-1 or GH treatment for 15 minutes. Cell lysates were evaluated on immunoblotting. […] These experiments were repeated at least 3 times with similar results.
To assess whether GH activates Akt, FoxO1, ERK-2, or its classic (i.e., JAK2 and STAT5) signaling pathways in human meibomian gland epithelial cells, cells were cultured in proliferating or differentiating media, and were exposed to a 10 nM concentration of GH for 15 minutes, and processed for immunoblot analyses. […]
A general note: A western blot detects proteins with antibodies after separation by electrophoresis.

The test system of data set [3] is immortalized human meibomian gland epithelial cells. Put plainly: LipidTOX green neutral lipid staining (lipid accumulation). It counts as cell-based. Particulars: for lipid accumulation: 10^−8 M. On the procedure: (§1) As an example of these experiments, immortalized human meibomian gland epithelial cells were cultured in the presence or absence of 10% fetal bovine serum. Cells were treated with an ethanol vehicle or azithromycin (10 μg/ml; Santa Cruz Biotechnology) for varying time periods. Cellular morphological appearance was recorded, cells were counted with a hemocytometer, and lipid accumulation was assessed by staining the cells with LipidTOX green neutral lipid stain (Invitrogen, Grand Island, N.Y.), according to reported methods. Staining fluorescent intensities were quantified by using ImageJ (http://rsbweb.nih.gov/ij/index.html). Statistical analyses were performed with Student's t-test (two-tailed, unpaired).
(§2) Immortalized human meibomian gland epithelial cells (IHMGECs; passages 20-22) were cultured in the presence or absence of 10% fetal bovine serum. Cells were treated with the ethanol vehicle or azithromycin (10 μg/mL) for varying periods. Cellular morphological appearance was recorded, cells were counted with a hemocytometer, and lipid accumulation was assessed by staining cells with LipidTOX green neutral lipid stain (Invitrogen Corp). Staining fluorescent intensities were quantified using ImageJ software (http://rsbweb.nih.gov/ij/index.html). Statistical analyses were performed with t test (2-tailed, unpaired).
Cell numbers were enumerated with a hemocytometer. Cellular lipid and lysosome accumulation were examined by staining cells with: Filipin III (a fluorometric probe for identifying unesterified cholesterol), LipidTOX green neutral lipid stain, and LysoTracker® Red DND-99 (a fluorescent technique designed for labeling acidic organelles such as lysosomes). Lysosomal lamellar bodies were identified by transmission electron microscopy. In brief, after culture and treatment on 24 mm polycarbonate membrane transwell inserts (0.4 μm pore size), cells were fixed in a solution of 2% formaldehyde+2.5% glutaraldehyde, in 0.08 M sodium cacodylate buffer, pH 7.4, post-fixed with 2% osmium tetroxide in 0.1 M sodium cacodylate buffer, and stained en bloc with 2% aqueousuranyl acetate. […] Cross sections (1 μM) were stained with 1% toluidine blue in 1% sodium tetraborate solution. Ultra-thin sections (60-90 nm) were imaged with a transmission electron microscope interfaced with a digital CCD camera. For biochemical assessments, cellular lipids were extracted with chloroform and methanol from samples with the same amount of protein. Lipids were then evaluated with high-performance thin-layer chromatography. With regard to the staining results, three Filipin, five LipidTox and four LysoTracker studies were conducted, and each experiment was performed in duplicate. Four random pictures were taken of each group, and four random areas were selected for the measurement of fluorescent intensities. The HPTLC experiments were performed in duplicate more than three times. Image data were quantified with ImageJ (http://rsbweb.nib.gov/ij/index.html). Electron microscopic analyses were performed in triplicate.
The experiment included green neutral lipid staining. Immortalized human meibomian gland epithelial cells were cultured in slides treated to facilitate cell growth in FBS-containing medium in the presence or absence of IGF-1, anti-IGF-1R, and/or GH. Media were replaced every 2 to 3 days for a total of 6 days, at which time cells were washed and fixed in 4% paraformaldehyde for 30 minutes. After additional washes, cells were stained with green neutral lipid stain in a humid chamber for 30 minutes. Coverslips were mounted on slides with an antifade reagent that contains 4′,6-diamidino-2-phenylindole nuclear stain and permitted to dry overnight before imaging with a microscope. Fluorescence intensity was quantified using image-processing software.

Data set [4] shares this test system. Nature of the data set: Cell proliferation, cells counted with a hemocytometer. It is filed as cell-based. Particulars: insulin. On the procedure: as §1, §2
Regarding cell proliferation assay, the human meibomian gland epithelial cells and LNCaP cells were cultured in 12-well plates in designated media and then exposed to IGF-1 or GH for defined periods. At experimental termination, cells were trypsinized and counted with a hemocytometer.
FIGS. 10a, 10b, and 10c illustrate the influence of IGF-1 on the proliferation of human meibomian gland epithelial cells. Cells were cultured (100,000 cells/well in 12-well plates, 3 wells per group) in basal, proliferating, and/or differentiating media and treated with IGF-I for 2 to 6 days. […] P values are for post hoc comparison compared with the control value. […] ANOVA indicates analysis of variance; EGF-BPE, epidermal growth factor-bovine pituitary extract; KSFM, keratinocyte serum-free medium. All comparisons are with control value. Whiskers mark SEM. aP<0.05 compared with the control value, post hoc test.

For data set [5] the following is noted: one trial; cited from earlier work.

On to `CC1=C(/C=C/C(C)=C/C=C/C(C)=C\C(=O)O)C(C)(C)CCC1` [13-cis RA], for which, in data set [1], the “induction of late apoptosis/necrosis” value is “induced late apoptosis/necrosis”.

Take `C[C@]12CCC(=O)C[C@@H]1CC[C@@H]1[C@@H]2CC[C@]2(C)[C@@H](O)CC[C@@H]12` [Dihydrotestosterone]: in data set [2], the “phosphorylation of extracellular-signal-regulated kinases (ERKs)” value is recorded as “increase the phosphorylation”. Moreover, in data set [3], the lipid accumulation entry is on record as “marked lipid accumulation”.

On to `CC(=O)[C@H]1CC[C@H]2[C@@H]3CCC4=CC(=O)CC[C@]4(C)[C@H]3CC[C@]12C` [progesterone], for which the lipid accumulation entry in data set [3] is recorded as “marked lipid accumulation”.

Take Insulin: insulin, an IGF-1 analogue: in data set [2] (cells in serum-containing medium 5-7 days before treatment), the “activation of AKT signaling pathway” value was “dose-dependent manner”. Moreover, the “accumulation of neutral lipids” value in data set [3] (insulin) is on record as “promotes meibomian gland epithelial cell accumulation of neutral lipids”. Moreover, in data set [4], the cell proliferation entry is “promotes meibomian gland epithelial cell proliferation”.

B1: figitumumab: human IgG2 monoclonal antibody that prevents the binding of IGF-1 to its receptor (antibody, chains of the INN, looked up)
heavy: EVQLLESGGGLVQPGGSLRLSCTASGFTFSSYAMNWVRQAPGKGLEWVSAISGSGGTTFYADSVKGRFTISRDNSRTTLYLQMNSLRAEDTAVYYCAKDLGWSDSYYYYYGMDVWGQGTTVTVSSASTKGPSVFPLAPCSRSTSESTAALGCLVKDYFPEPVTVSWNSGALTSGVHTFPAVLQSSGLYSLSSVVTVPSSNFGTQTYTCNVDHKPSNTKVDKTVERKCCVECPPCPAPPVAGPSVFLFPPKPKDTLMISRTPEVTCVVVDVSHEDPEVQFNWYVDGVEVHNAKTKPREEQFNSTFRVVSVLTVVHQDWLNGKEYKCKVSNKGLPAPIEKTISKTKGQPREPQVYTLPPSREEMTKNQVSLTCLVKGFYPSDIAVEWESNGQPENNYKTTPPMLDSDGSFFLYSKLTVDKSRWQQGNVFSCSVMHEALHNHYTQKSLSLSPG
light: DIQMTQFPSSLSASVGDRVTITCRASQGIRNDLGWYQQKPGKAPKRLIYAASRLHRGVPSRFSGSGSGTEFTLTISSLQPEDFATYYCLQHNSYPCSFGQGTKLEIKRTVAAPSVFIFPPSDEQLKSGTASVVCLLNNFYPREAKVQWKVDNALQSGNSQESVTEQDSKDSTYSLSSTLTLSKADYEKHKVYACEVTHQGLSSPVTKSFNRGEC
Turning to B1, the “most common adverse effect” value in data set [5] is listed as “DED”.
